Data: ChEMBL document CHEMBL1125050, “Potential antisecretory antidiarrheals. 2. Alpha 2-adrenergic 2-[(aryloxy)alkyl]imidazolines” (J Med Chem, 1990)
Calls of active or inactive are those of the source.

Experiments:
[1] = Partition coefficient (logP); format: physicochemical; details: octanol/water
[2] = species: Oryctolagus cuniculus; test: Inhibition of increase in potential difference caused by diarrhea inducing secretogogues determined in rabbit; ++ = active; format: functional, organism-based
[3] = species: Rattus norvegicus; test: Activity in the spontaneously hypertensive rats (SHR); inactive = post treatment BP did not change; format: functional, organism-based
[4] = species: Rattus norvegicus; test: animal or person; details: sc, read-out: ID50
[5] = species: Oryctolagus cuniculus; test: Inhibition of increase in potential difference caused by diarrhea inducing secretogogues determined in rabbit; + = moderate activity; format: functional, organism-based
[6] = species: Oryctolagus cuniculus; test: IInhibition of increase in potential difference caused by diarrhea inducing secretogogues determined in rabbit; 0 = inactive; format: functional
[7] = species: Oryctolagus cuniculus; test: Inhibition of increase in potential difference caused by diarrhea inducing secretogogues determined in rabbit; 0 = inactive; format: functional
[8] = tested on: Rattus norvegicus; format: functional; details: po, read-out: ID50 (the source's name)
[9] = species: Rattus norvegicus; test: Activity in the spontaneously hypertensive rats (SHR); rats died due to convulsive side effects; format: functional, organism-based
[10] = species: Rattus norvegicus; test: Activity in the spontaneously hypertensive rats (SHR); rats died due to exophthalmic side effects; format: functional, organism-based
[11] = species: Rattus norvegicus; test: Activity in the spontaneously hypertensive rats (SHR); active = post treatment BP changed; format: functional, organism-based
[12] = tested on: Rattus norvegicus; format: functional; details: sc, read-out: ID50 (the source's name)

SMILES	logP ([1]; read-out: logP)	ED50 [4]	Activity [7]	further results
CCc1cccc(CC)c1OC(C)C1=NCCN1 (centres undefined)	5.41	2.3 mg/kg	–	Activity [2]: Active; Activity [3]: inactive
Cc1c(OCc2ccccc2)cccc1OC(C)C1=NCCN1 (centres undefined)	–	> 100 mg/kg	–	Activity [5]: moderate activity
Cc1cc(N)cc(C)c1OC(C)C1=NCCN1 (centres undefined)	–	> 100 mg/kg	–	Activity [6]: 0
Cc1cc(C)c(OC(C)C2=NCCN2)c(C)c1 (centres undefined)	5	11.1 mg/kg	0	Activity [3]: inactive
CCCc1cccc(CCC)c1OC(C)C1=NCCN1 (centres undefined)	–	> 100 mg/kg	–	Activity [5]: moderate activity
Cc1cccc(C)c1CC(C)C1=NCCN1 (centres undefined)	–	> 100 mg/kg	0	–
Cc1ccc2[nH]ccc2c1OC(C)C1=NCCN1.ClCCl (centres undefined)	3.77	1.6 mg/kg	–	ED50 [8]: 1.2 mg/kg; Activity [9]: rats died due to convulsive side effects
Cc1cc2[nH]cnc2c(C)c1OC(C)C1=NCCN1 (centres undefined)	–	> 100 mg/kg	0	–
Cc1c(N)cccc1OC(CCO)C1=NCCN1 (centres undefined)	1.2	1.2 mg/kg	–	Activity [10]: rats died due to exophthalmic side effects; ED50 [8]: 1.3 mg/kg
Cc1cc(Br)c(N)c(C)c1OC(C)C1=NCCN1 (centres undefined)	–	> 100 mg/kg	–	–
CC(Oc1cccn2ncnc12)C1=NCCN1.CO (centres undefined)	–	26.5 mg/kg	–	–
Cc1cccc(C)c1OC(C)C1=NCCS1 (centres undefined)	–	> 100 mg/kg	0	–
Cc1c(N)cccc1OC(C)C1=NCCN1 (centres undefined)	–	–	–	Activity [2]: Active
Cc1cc([N+](=O)[O-])cc(C)c1OC(C)C1=NCCN1 (centres undefined)	–	> 100 mg/kg	0	–
Cc1c(OC(C)C2=NCCN2)cccc1N(C)C (centres undefined)	4	4 mg/kg	0	–
CCOC(=O)Nc1ccc(C)c(OC(C)C2=NCCN2)c1C (centres undefined)	4.4	3 mg/kg	–	Activity [5]: moderate activity; Activity [11]: Active
Cc1ccc(N)cc1OC(C)C1=NCCN1 (centres undefined)	–	> 100 mg/kg	0	–
Cc1c(O)cccc1OC(C)C1=NCCN1 (centres undefined)	3.21	17.2 mg/kg	–	Activity [5]: moderate activity; Activity [3]: inactive
Cc1c(N)cccc1OC(C)C1=NCCN1.Cl.Cl (centres undefined)	–	5.6 mg/kg	–	logP [1]: 2; ED50 [8]: 1.3 mg/kg

SMILES	logP ([1]; read-out: logP)	ED50 [4]	Activity [7]	further results
Cc1cccc(C)c1OC(C)c1nc2ccccc2[nH]1 (centres undefined)	–	> 100 mg/kg	–	–
COc1cccc(OC)c1OC(C)C1=NCCN1 (centres undefined)	–	> 100 mg/kg	–	–
COc1cccc(OC(C)C2=NCCN2)c1C (centres undefined)	–	> 100 mg/kg	–	–
Cc1cccc(C)c1NC(C)C1=NCCN1 (centres undefined)	–	> 100 mg/kg	0	–
CCOC(=O)Nc1cccc(OC(C)C2=NCCN2)c1C (centres undefined)	3.27	9.5 mg/kg	0	ED50 [8]: 4.6 mg/kg; Activity [11]: Active
Cc1cccc(C)c1OC(C)C1=NC2CCCCC2N1 (centres undefined)	–	24.1 mg/kg	–	–
Cc1c(N)cccc1OC(C)C1=NCCN1 (single isomer, unassigned)	–	–	–	Activity [11]: Active
CC(Oc1cccc2ccccc12)C1=NCCN1 (centres undefined)	4.35	17.9 mg/kg	0	ED50 [8]: 16.1 mg/kg; Activity [3]: inactive
Clc1cccc(Cl)c1NC1=NCCN1 [CLONIDINE]	–	0.3 mg/kg	–	–
Cc1cc(C)c(OC(C)C2=NCCN2)cc1N (centres undefined)	3.01	7.8 mg/kg	0	–
Cc1ccc(N)c(C)c1OC(C)C1=NCCN1 (centres undefined)	3.31	1 mg/kg	–	Activity [2]: Active; Activity [11]: Active
CC(Oc1ccc2ccccc2c1)C1=NCCN1 (centres undefined)	–	> 100 mg/kg	0	–
Cc1ncccc1OC(C)C1=NCCN1 (centres undefined)	–	–	–	ED50 [12]: > 100 mg/kg
Cc1cccc(C)c1OC(C)C1=NCCN1 (centres undefined)	4.39	1.7 mg/kg	–	Activity [2]: Active; ED50 [8]: 2.7 mg/kg
Cc1cc(Br)cc(C)c1OC(C)C1=NCCN1 (centres undefined)	–	> 100 mg/kg	–	–
CC(Oc1cncc2ccccc12)C1=NCCN1 (centres undefined)	–	21.7 mg/kg	–	–
C=CCc1cccc(CC=C)c1OC(C)C1=NCCN1 (centres undefined)	–	> 100 mg/kg	–	–
Cc1ccc2ccccc2c1OC(C)C1=NCCN1 (centres undefined)	–	> 100 mg/kg	0	–
Cc1c(N)cccc1OC(C)C1=NCCN1 (stereo in doubt; 32) [listing 1 of 2 here]	2	–	–	–

SMILES	logP ([1]; read-out: logP)	ED50 [4]	Activity [7]	further results
CC(=O)Nc1cccc(OC(C)C2=NCCN2)c1C (centres undefined)	2.43	7 mg/kg	0	–
Cc1cccc(C)c1OC(C)C1=NCCCN1 (centres undefined)	–	> 100 mg/kg	0	–
Cc1cccc(C)c1OC(C)C1=NCCN1C (centres undefined)	–	32.4 mg/kg	–	–
Cc1ccc(OC(C)C2=NCCN2)c(C)c1 (centres undefined)	4.35	24.1 mg/kg	–	–
Cc1cc(C(=O)OC(C)(C)C)cc(C)c1OC(C)C1=NCCN1 (centres undefined)	–	> 100 mg/kg	–	–
CC(Oc1cccc2[nH]ccc12)C1=NCCN1 (centres undefined)	3.12	5.7 mg/kg	–	Activity [2]: Active; ED50 [8]: 6.6 mg/kg; Activity [11]: Active
Cc1cccc(C)c1OC(CCO)C1=NCCN1 (centres undefined)	2.89	6.9 mg/kg	–	Activity [5]: moderate activity; Activity [3]: inactive
CC(Oc1cccc(N)c1)C1=NCCN1 (centres undefined)	–	> 100 mg/kg	0	–
Cc1c(N)cccc1OC(C)C1=NCCN1 (stereo in doubt; 32) [listing 2 of 2 here]	–	–	–	Activity [11]: Active
Cc1cccc(C)c1OC(C)(C)C1=NCCN1	4.66	3.7 mg/kg	–	Activity [2]: Active
CC(Oc1c(Cl)cccc1Cl)C1=NCCN1 (centres undefined) [LOFEXIDINE]	–	< 2 mg/kg	–	–
Cc1cccc(C)c1SC(C)C1=NCCN1 (centres undefined)	–	> 100 mg/kg	0	–
Cc1cccc(C)c1OCC1=NCCN1	–	> 100 mg/kg	–	Activity [5]: moderate activity
CCC(Oc1cccc(N)c1C)C1=NCCN1 (centres undefined)	3.19	4.5 mg/kg	–	ED50 [8]: 5.2 mg/kg; Activity [11]: Active
CCC(Oc1c(C)cccc1C)C1=NCCN1 (centres undefined)	4.88	5.2 mg/kg	0	–
CCc1ccccc1OC(C)C1=NCCN1 (centres undefined)	4.23	22.9 mg/kg	–	Activity [5]: moderate activity
Cc1c(N)cc(N)c(C)c1OC(C)C1=NCCN1 (centres undefined)	–	–	–	ED50 [12]: 32 mg/kg
Cc1cc(C(=O)O)cc(C)c1OC(C)C1=NCCN1 (centres undefined)	–	> 100 mg/kg	0	–
